From article PMC8066331, “Anticancer Activity of Triazolo-Thiadiazole Derivatives and Inhibition of AKT1 and AKT2 Activation” (Pharmaceutics, 2021)

Assays:
[1] = system: UWB1.289+BRCA1; experiment: MTT in vitro antiproliferative assay, UWB1.289+BRCA1; assay type: cell-based, human; conditions: UWB1.289+BRCA1, MTT; for IC50 / GI50: Homo sapiens; for IC50: 48 h, 50% cell death; for GI50 / TGI: 48 h drug exposure
Source text: (§1) The in vitro antiproliferative activities of the novel triazolo[3,4-b]thiadiazole derivatives were estimated in ten well-established human cancer cell lines including three ovarian (SKOV-3, UWB 1.289, and UWB 1.289+BRCA1), five colorectal adenocarcinoma (DLD-1, HT-29, LS174T, LoVo, and SW403), and two prostate cancer cell lines (PC-3 and DU-145). All cancer cell lines were obtained from the American Type Culture Collection (ATCC) and cultivated in different culture media according to the instructions. The required growth mediums were supplemented with 10% fetal bovine serum and 1% streptomycin/penicillin. All cancer cell lines were cultured as monolayers and maintained at 37 °C, 5% CO2 in humidified air.
(§2) Stock solutions of all tested compounds were prepared by dissolving the required amount of substances in the DMSO solvent to reach the desired concentration of 15 mM.
(§3) To evaluate the in vitro antiproliferative activity of the triazolo[3,4-b]thiadiazole derivatives, 3-(4,5-dimethylthiazol-2-yl)-2,5-diphenyltetrazolium bromide (MTT) assay was assessed. According to the protocol, cells were firstly seeded into a 96-well plate at a density of 8 × 10^3 cells and grown for 24 h at 37 °C, 5% CO2 in humidified air. Subsequently, cells were treated with the tested compounds in a specific range of drug concentrations (1–100 μΜ). Following 48 h of drug exposure, the culture media were discarded and replaced with 100 μL of fresh medium. Afterwards, 50 μL of dissolved MTT in phosphate-buffered saline (PBS) solution (5 mg/mL) were added in each well and cells were incubated for 3 h at 37 °C, 5% CO2 in humidified air. Incubation time was followed by MTT discard and the addition of 100 μL of DMSO solvent so that the formazan crystals could be dissolved. The absorbance of the converted dye was immediately measured at a wavelength of 540 nm on an ELISA reader (VersaMax Microplate Reader, Orleans, CA, USA).
(§4) The in vitro anticancer effect of a tested compound on cell viability was determined by three dose–response parameters termed GI50, TGI, and IC50. More specifically, the GI50 value indicates the required concentration of the compound that impels 50% cell growth inhibition, the TGI value corresponds to the concentration that induces 100% cell growth inhibition, and the IC50 value is the concentration that causes 50% cell death. The two parameters GI50 and TGI represent the cytostatic activity, whereas IC50 reflects the cytotoxic effect of a drug. To estimate the three parameters, nine absorbance measurements were required including control 24 h (Ct24), control 72 h (Ct72), and the mean of cell survival in all seven drug concentrations (Tt72). The percentage growth inhibition was calculated according to National Cancer Institute’s (NCI) protocol: [(Tt72x) − (Ct24)/(Ct72) − (Ct24)] × 100 for concentrations for which Tt72x > Ct24 and [(Tt72x) − (Ct24)/Ct24] × 100 for concentrations for which Tt72x < Ct24. GI50 was calculated from [(Tt72x) − (Ct24)/(Ct72) − (Ct24)] × 100 = 50, TGI was calculated from [(Tt72x) − (Ct24)/(Ct72) − (Ct24)] × 100 = 0, and IC50 was calculated from [(Tt72x) − (Ct24)/Ct24] × 100 = 50. All the experiments were carried out in triplicate.

[2] = system: LoVo; experiment: MTT in vitro antiproliferative assay, LoVo; assay type: cell-based, human; conditions: for TGI / GI50: 48 h drug exposure; for IC50 / GI50: Homo sapiens; for IC50: 48 h, 50% cell death
Source text: as §1, §2, §3, §4

[3] = system: LS174T; experiment: MTT in vitro antiproliferative assay, LS174T; assay type: cell-based, human; conditions: for TGI / GI50: 48 h drug exposure; for IC50 / GI50: Homo sapiens; for IC50: 48 h, 50% cell death
Source text: as §1, §2, §3, §4

[4] = system: UWB 1.289; experiment: MTT in vitro antiproliferative assay, UWB 1.289; assay type: cell-based, human; conditions: UWB 1.289, MTT; for IC50 / GI50: Homo sapiens, UWB1289; for IC50: 48 h, 50% cell death; for GI50 / TGI: 48 h drug exposure
Source text: as §1, §2, §3, §4

[5] = system: HT-29 human tumor (colorectal adenocarcinoma) xenograft; experiment: In vivo antitumor activity, HT-29 xenograft; conditions: HT-29 xenograft in CB17 SCID mice; for volume size of the tumors: eighteen days after single i.p. dose at LD10; for tumor inhibition (TI): single i.p. dose at LD10
Procedure: CB17 severe combined immunodeficient (SCID) male and female mice were used for toxicity and antitumor activity studies. Mice were obtained from National Center for Scientific Research (NCSR) Demokritos, Institute of Biology, Athens, Greece. CB17 SCID mice were fed water and an irradiated standard rodent diet ad libitum and housed under specific pathogen-free conditions. For ethical reasons, the weight and tumor volumes of the animals were measured twice a week during the experiment. In case of cachexia, suffering, or increase in the tumor volume up to 2000 mm^3, the animals were sacrificed by cervical disruption. The protocol was approved by the ethical committee of the National and Kapodistrian University of Athens and was conducted according to the European Directive 86/609/EEC guidelines for the care and use of laboratory animals. The study received a permit from the Veterinary Directorate of the Prefecture of Athens (approval #: 2023/2017) according to the Greek legislation conforming to the 2010/53/ EU Council Directive.
HT-29 (human colorectal adenocarcinoma) tumor volume was developed by subcutaneously implanting 2 × 10^6 HT-29 cells/mouse in the right hind flank. In vivo antitumor activity was investigated in 22 mice, of which 7 mice served as the common control group and the 15 remaining mice were divided into three groups of 5 mice. Therefore, each derivative was administered in a group of five mice. The animals were randomized into test groups on day 28 when their tumor volumes were in the 150–200 mm^3 range. After randomization, the mice were treated intraperitoneally (day 1) with the tested compounds (KA25, KA26, and KA39) as a single dose LD10. The control group received saline buffer (0.2 mL).
The tumor volumes were measured using an analogue caliper twice a week starting on the first day of treatment. To determine the volume (mm^3) of each tumor in an animal, the following formula was used: (D × d^2/2), where D and d refer to the larger and smaller perpendicular dimensions collected at each measurement, respectively. The diameters were determined from two orthogonal measurements on each tumor. The mean tumor volume was determined by average all tumor volumes in each group. The weekly mean tumor area change was determined and tumor inhibition (TI) was calculated by the formula: TI (%) = [1 − (TWT − TWZ)/[(TWC − TWZ)] × 100, where TWT is determined as the tumor area (mm^3) in treated animals at the time of evaluation, TWZ is determined as the tumor area (mm^3) at the time of initiation of treatment (zero time), and TWC is determined as the tumor volume (mm^3) in untreated animals (controls) at the time of evaluation. The animals were sacrificed when the tumor volume reached 2000 mm^3 (endpoint).

Structure (SMILES)	IC50 [1] [µM]	GI50 [1] [µM]	TGI [1] [μΜ]	TGI [2] [μΜ]	IC50 [2] [µM]	GI50 [2] [µM]	TGI [3] [μΜ]	IC50 [3] [µM]	GI50 [3] [µM]	IC50 [4] [µM]	GI50 [4] [µM]	TGI [4] [μΜ]	volume size of the tumors [5] [mm^3]	tumor inhibition (TI) [5] [%]
COc1cc(Cc2nnc3sc(C=Cc4ccc(F)cc4)nn23)c(S(=O)(=O)N(C)C)cc1OC [KA25]	38 ± 1.1	4 ± 0.5	13 ± 0.8	13.8 ± 0.52	> 100	8 ± 0.76	100 ± 0.1	> 100	9.3 ± 2	62 ± 1.2	2 ± 0.5	5 ± 0.7	521.6 ± 101.6	62.1
COc1cc(Cc2nnc3sc(C=Cc4ccc(Cl)cc4)nn23)c(S(=O)(=O)N(C)C)cc1OC [KA26]	> 100	42 ± 0.5	65 ± 0.7	>100	> 100	15 ± 0.8	>100	> 100	8 ± 1.5	70 ± 1.4	29 ± 0.7	53 ± 1	528.5 ± 167.7	62.4
COc1cc(Cc2nnc3sc(-c4cc([N+](=O)[O-])ccc4[N+](=O)[O-])nn23)c(S(=O)(=O)N(C)C)cc1OC [KA39]	94 ± 2.3	6 ± 0.5	11 ± 0.7	5.5 ± 0.1	10.5 ± 0.15	2.2 ± 0.2	17 ± 1.3	21.5 ± 1.5	12 ± 1.5	22 ± 1.2	6 ± 0.2	10 ± 0.8	489.17 ± 81.5	67.6
